From US9101638B2, “Boronic acid derivatives and therapeutic uses thereof” (Rempex Pharmaceuticals, Inc., priority 2013, dated 2015)

Columns and labels:
CTX-M-14 = CTX-M-14 (Escherichia coli, UniProt Q9L5C7); experiment: Inhibition of nitrocefin cleavage by purified CTX-M-14; assay type: biochemical; conditions: nitrocefin reporter substrate, purified enzyme; read-out: Ki (CTX-M-14, NCF)
Protocol: (§1) Purified enzymes were mixed with various concentrations of inhibitors in reaction buffer and incubated for 10 min at room temperature. Nitrocefin was added and substrate cleavage profiles were recorded at 490 nm every 10 sec for 10 min.

KP1009 (CTX-M-15) [1] = experiment: Potentiation of aztreonam, strain KP1009; assay type: cell-based
ec308 (SHV-5) [2] = experiment: Potentiation of tigemonam, strain ec308; assay type: cell-based; conditions: minimum BLI concentration inhibiting growth with 4 μg/mL tigemonam
ec308 (SHV-5) [3] = experiment: Potentiation of aztreonam, strain ec308; assay type: cell-based; conditions: minimum BLI concentration inhibiting growth with 4 μg/mL aztreonam
P99 = P99 (Enterobacter cloacae, UniProt P05364); experiment: Inhibition of nitrocefin cleavage by purified P99; assay type: biochemical; conditions: nitrocefin reporter substrate, purified enzyme; read-out: Ki (P99, NCF)
Protocol: as §1

ec302 (TEM-10) [4] = experiment: Potentiation of tigemonam, strain ec302; assay type: cell-based
KP1004 (K-2) = experiment: Potentiation of aztreonam, strain KP1004; assay type: cell-based; conditions: minimum BLI concentration inhibiting growth with 4 μg/mL aztreonam
OXA-48 = OXA-48 (Klebsiella pneumoniae, UniProt Q6XEC0); experiment: Inhibition of nitrocefin cleavage by purified OXA-48; assay type: biochemical; conditions: nitrocefin reporter substrate, purified enzyme; read-out: Ki (OXA-48, NCF)
Protocol: as §1

KP1009 (CTX-M-15) [5] = experiment: Potentiation of tigemonam, strain KP1009; conditions: minimum BLI concentration inhibiting growth with 4 μg/mL tigemonam
ECL1002 = experiment: Potentiation of aztreonam, strain ECL1002; assay type: cell-based; conditions: minimum BLI concentration inhibiting growth with 4 μg/mL aztreonam
ec302 (TEM-10) [6] = experiment: Potentiation of aztreonam, strain ec302; assay type: cell-based
EC1010 (CMY-6) [7] = experiment: Potentiation of aztreonam, strain EC1010; assay type: cell-based
KP1005 (CTX-M-14) = experiment: Potentiation of aztreonam, strain KP1005; assay type: cell-based
CMY-2 = CMY-2 (Klebsiella pneumoniae, UniProt Q48434); experiment: Inhibition of nitrocefin cleavage by purified CMY-2; assay type: biochemical; conditions: nitrocefin reporter substrate, purified enzyme; read-out: Ki (CMY-2, NCF)
Protocol: as §1

EC1010 (CMY-6) [8] = assay type: cell-based
PAM1154/KPC-2 = experiment: Biapenem potentiation in PAM1154/KPC-2 (MexAB-OprM lacking); assay type: cell-based, Pseudomonas aeruginosa
Protocol: (§2) Efflux of BLIs from Pseudomonas aeruginosa by the MexAB-OprM efflux pump was also evaluated. […] Due to expression of KPC-2 both strains became resistant to biapenem. […] Potency of BLIs to potentiate biapenem in these strains was determined. […] The ratio of MPC64 values for each BLI in PAM1032/KPC-2 (efflux proficient) and PAM1154/KPC-2 (efflux deficient) was determined to generate the Efflux Index (EI).

PAM1032/KPC-2 = experiment: Biapenem potentiation in PAM1032/KPC-2 (MexAB-OprM overexpressed); assay type: cell-based, Pseudomonas aeruginosa; conditions: BLI potency to decrease biapenem MIC 64-fold, 32 to 0.5 μg/ml; efflux proficient strain
Protocol: as §2

SHV-12 = SHV-12 (Klebsiella pneumoniae, UniProt P0AD64, E235K/G234S/L31Q); experiment: Inhibition of nitrocefin cleavage by purified SHV-12; assay type: biochemical; conditions: nitrocefin reporter substrate, purified enzyme; read-out: Ki (SHV-12, NCF)
Outline: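 Purified enzyme was preincubated with a range of inhibitor concentrations in reaction buffer for 10 min at room temperature. Nitrocefin was then added and its cleavage followed at 490 nm every 10 sec for 10 min.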

[9] = target: T1, Dipeptidyl peptidase 8 (DPP8) (Homo sapiens, UniProt Q6V1X1); experiment: Serine protease inhibition: DPP8; assay type: biochemical, mammalian
T1 construct: purchased BPS Bioscience 80080
Protocol: (§3) The effect of selected BLIs on the enzymatic activity of some common mammalian serine proteases was evaluated.
(§4) 50 μl of the diluted enzyme was mixed with 50 μl of inhibitor at various concentrations and 50 μl of corresponding buffer (Table 7). Reaction mixtures were incubated for 10 min at 37° C. Subsequently, 50 μl of corresponding substrate (Table 7) was added and absorbance or fluorescence was monitored for 30 min on SpectraMax M2 plate reader (Molecular Devices). 4-(2-Aminoethyl)benzenesulfonyl fluoride hydrochloride (AEBSF) and leupeptin were used as positive controls. Rates of reaction were calculated and presented relative to “no treatment” control.

Neutrophil elastase = target: T2, Neutrophil elastase (Homo sapiens, UniProt P08246); experiment: Serine protease inhibition: neutrophil elastase; assay type: biochemical, mammalian; conditions: Table 8B; read-out: IC50 Neutrophil elastase
T2 construct: purchased Calbiochem 324681
T2 sequence (P08246 30-267): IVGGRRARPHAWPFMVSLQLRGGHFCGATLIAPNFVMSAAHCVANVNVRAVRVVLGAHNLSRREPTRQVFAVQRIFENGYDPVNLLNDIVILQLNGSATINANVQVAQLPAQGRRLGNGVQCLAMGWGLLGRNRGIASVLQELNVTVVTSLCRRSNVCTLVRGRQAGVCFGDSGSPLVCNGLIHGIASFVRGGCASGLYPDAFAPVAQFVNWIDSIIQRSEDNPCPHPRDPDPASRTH
Protocol: as §3, §4

[10] = target: T3, Dipeptidyl peptidase 9 (DPP9) (Homo sapiens, UniProt Q86TI2); experiment: Serine protease inhibition: DPP9; assay type: biochemical, mammalian
T3 construct: purchased BPS Bioscience 80090
Protocol: as §3, §4

Urokinase = target: T4, Urokinase (Homo sapiens, UniProt P00749); experiment: Serine protease inhibition: urokinase; assay type: biochemical, mammalian; conditions: Table 8A, positive controls, numeric; read-out: IC50 Urokinase
T4 construct: purchased Calbiochem 672112
Protocol: as §3, §4

Plasmin = target: T5, Plasmin (Homo sapiens, UniProt P00747); experiment: Serine protease inhibition: plasmin; assay type: biochemical, mammalian
T5 construct: Plasmin; MPBio; 19419890; purchased MPBio 19419890
Protocol: as §3, §4

Thrombin = target: T6, Thrombin (Homo sapiens, UniProt P00734); experiment: Serine protease inhibition: thrombin; assay type: biochemical, mammalian; conditions: Table 8A, positive controls, numeric; read-out: IC50 Thrombin
T6 construct: Thrombin; MPBio; 19491880; purchased MPBio 19491880
Protocol: as §3, §4

HtrA2 = target: T7, HtrA2 (Homo sapiens, UniProt O43464); experiment: Serine protease inhibition: HtrA2; assay type: biochemical, mammalian
T7 sequence (O43464 134-458): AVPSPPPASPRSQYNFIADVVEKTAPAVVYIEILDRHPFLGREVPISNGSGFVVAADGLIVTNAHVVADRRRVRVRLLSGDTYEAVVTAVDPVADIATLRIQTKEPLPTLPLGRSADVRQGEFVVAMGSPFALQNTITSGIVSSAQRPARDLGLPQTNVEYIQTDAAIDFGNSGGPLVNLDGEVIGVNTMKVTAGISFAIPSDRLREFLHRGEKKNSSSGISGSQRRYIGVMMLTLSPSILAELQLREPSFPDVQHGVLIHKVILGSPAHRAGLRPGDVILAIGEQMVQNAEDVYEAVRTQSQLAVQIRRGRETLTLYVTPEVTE
Protocol: as §3, §4

CathepsinA = target: T8, CathepsinA (Homo sapiens, UniProt P10619); experiment: Serine protease inhibition: cathepsin A; assay type: biochemical, mammalian
T8 construct: purchased R&D Systems 1049-SE
T8 sequence (P10619 29-480): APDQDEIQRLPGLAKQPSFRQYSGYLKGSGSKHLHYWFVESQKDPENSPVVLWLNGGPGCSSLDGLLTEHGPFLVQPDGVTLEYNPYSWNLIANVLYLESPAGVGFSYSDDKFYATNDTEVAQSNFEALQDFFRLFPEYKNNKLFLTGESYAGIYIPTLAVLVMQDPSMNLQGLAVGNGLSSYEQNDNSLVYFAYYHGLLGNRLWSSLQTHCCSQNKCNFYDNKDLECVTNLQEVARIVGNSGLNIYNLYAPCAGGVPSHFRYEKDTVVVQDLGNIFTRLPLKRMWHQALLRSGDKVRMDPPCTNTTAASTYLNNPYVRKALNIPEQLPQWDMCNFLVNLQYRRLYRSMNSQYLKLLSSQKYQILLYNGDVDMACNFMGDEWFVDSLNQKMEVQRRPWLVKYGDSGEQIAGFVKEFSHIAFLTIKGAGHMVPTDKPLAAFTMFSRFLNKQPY
Protocol: as §3, §4

Elastase = target: T9, Elastase (Sus scrofa, UniProt P00772); experiment: Serine protease inhibition: elastase; assay type: biochemical, mammalian
T9 construct: purchased Calbiochem 324682
Protocol: as §3, §4

Chymotrypsin = target: T10, Chymotrypsin (Bos taurus, UniProt P00766); experiment: Serine protease inhibition: chymotrypsin; assay type: biochemical, mammalian
T10 construct: purchased Calbiochem 230832
Protocol: as §3, §4

Trypsin = target: T11, Trypsin (Bos taurus, UniProt P00760); experiment: Serine protease inhibition: trypsin; assay type: biochemical, mammalian
T11 construct: purchased Calbiochem 6502
T11 sequence (P00760 24-246): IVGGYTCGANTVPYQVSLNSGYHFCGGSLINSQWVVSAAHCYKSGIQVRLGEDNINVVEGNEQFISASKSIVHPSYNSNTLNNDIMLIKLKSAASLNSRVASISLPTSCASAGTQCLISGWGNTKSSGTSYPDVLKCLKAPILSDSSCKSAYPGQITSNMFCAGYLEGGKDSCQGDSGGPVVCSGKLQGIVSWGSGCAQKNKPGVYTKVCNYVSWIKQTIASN
Protocol: as §3, §4

[11] = target: T12, Dipeptidyl peptidase 7 (DPP7) (Homo sapiens, UniProt Q9UHL4); experiment: Serine protease inhibition: DPP7; assay type: biochemical, mammalian
T12 construct: purchased R&D Systems 3438-SE
Protocol: as §3, §4

Chymase = target: T13, Chymase (Homo sapiens, UniProt P23946); experiment: Serine protease inhibition: chymase; assay type: biochemical, mammalian; conditions: Table 8A, positive controls, numeric; read-out: IC50 Chymase
T13 construct: purchased Enzo Lifescience BML-SE281
T13 sequence (P23946 22-247): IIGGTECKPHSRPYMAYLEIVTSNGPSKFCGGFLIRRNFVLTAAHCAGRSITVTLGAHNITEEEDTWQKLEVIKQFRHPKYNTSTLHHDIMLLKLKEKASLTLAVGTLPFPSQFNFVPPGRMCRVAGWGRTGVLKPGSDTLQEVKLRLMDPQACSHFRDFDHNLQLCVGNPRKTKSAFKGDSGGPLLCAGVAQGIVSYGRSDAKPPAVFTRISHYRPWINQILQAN
Protocol: as §3, §4

T9 sequence (P00772 27-266): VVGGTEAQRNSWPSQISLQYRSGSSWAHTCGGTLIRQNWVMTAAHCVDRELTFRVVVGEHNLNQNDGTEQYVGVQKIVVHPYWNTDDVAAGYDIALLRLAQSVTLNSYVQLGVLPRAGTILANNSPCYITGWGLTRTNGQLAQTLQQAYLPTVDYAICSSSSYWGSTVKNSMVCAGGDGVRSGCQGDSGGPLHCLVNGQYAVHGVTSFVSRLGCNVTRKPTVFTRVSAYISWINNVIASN
Chain of SHV-12 (P0AD64 22-286 L31Q/G234S/E235K): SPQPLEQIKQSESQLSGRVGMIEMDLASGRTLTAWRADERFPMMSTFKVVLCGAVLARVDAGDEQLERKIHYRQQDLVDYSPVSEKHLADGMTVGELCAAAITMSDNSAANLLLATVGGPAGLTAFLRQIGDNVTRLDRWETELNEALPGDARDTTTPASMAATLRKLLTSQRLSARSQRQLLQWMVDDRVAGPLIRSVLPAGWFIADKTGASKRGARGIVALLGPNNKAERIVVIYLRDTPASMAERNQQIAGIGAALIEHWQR
T5 sequence (P00747 581-810 limits assumed, species assumed): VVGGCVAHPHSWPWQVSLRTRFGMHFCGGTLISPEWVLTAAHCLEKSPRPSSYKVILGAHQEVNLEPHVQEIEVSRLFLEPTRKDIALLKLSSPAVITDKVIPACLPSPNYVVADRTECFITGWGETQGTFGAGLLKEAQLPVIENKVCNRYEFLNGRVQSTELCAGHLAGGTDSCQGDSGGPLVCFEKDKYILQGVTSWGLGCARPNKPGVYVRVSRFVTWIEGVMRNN
T5 sequence (P00747 97-580 partner limits assumed, species assumed): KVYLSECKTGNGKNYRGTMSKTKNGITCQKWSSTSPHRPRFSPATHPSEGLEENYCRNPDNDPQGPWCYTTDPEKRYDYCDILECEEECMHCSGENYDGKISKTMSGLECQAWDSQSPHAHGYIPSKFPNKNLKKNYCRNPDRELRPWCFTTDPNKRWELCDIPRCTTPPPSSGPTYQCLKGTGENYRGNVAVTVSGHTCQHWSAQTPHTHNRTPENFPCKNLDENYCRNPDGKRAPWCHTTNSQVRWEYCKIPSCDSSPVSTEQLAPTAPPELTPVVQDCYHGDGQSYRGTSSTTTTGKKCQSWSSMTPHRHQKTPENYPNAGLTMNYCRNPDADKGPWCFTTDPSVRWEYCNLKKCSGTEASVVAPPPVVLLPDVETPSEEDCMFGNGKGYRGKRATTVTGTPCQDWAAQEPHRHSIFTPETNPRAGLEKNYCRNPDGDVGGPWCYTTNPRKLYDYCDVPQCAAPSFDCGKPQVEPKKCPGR
T3 sequence (Q86TI2 whole entry): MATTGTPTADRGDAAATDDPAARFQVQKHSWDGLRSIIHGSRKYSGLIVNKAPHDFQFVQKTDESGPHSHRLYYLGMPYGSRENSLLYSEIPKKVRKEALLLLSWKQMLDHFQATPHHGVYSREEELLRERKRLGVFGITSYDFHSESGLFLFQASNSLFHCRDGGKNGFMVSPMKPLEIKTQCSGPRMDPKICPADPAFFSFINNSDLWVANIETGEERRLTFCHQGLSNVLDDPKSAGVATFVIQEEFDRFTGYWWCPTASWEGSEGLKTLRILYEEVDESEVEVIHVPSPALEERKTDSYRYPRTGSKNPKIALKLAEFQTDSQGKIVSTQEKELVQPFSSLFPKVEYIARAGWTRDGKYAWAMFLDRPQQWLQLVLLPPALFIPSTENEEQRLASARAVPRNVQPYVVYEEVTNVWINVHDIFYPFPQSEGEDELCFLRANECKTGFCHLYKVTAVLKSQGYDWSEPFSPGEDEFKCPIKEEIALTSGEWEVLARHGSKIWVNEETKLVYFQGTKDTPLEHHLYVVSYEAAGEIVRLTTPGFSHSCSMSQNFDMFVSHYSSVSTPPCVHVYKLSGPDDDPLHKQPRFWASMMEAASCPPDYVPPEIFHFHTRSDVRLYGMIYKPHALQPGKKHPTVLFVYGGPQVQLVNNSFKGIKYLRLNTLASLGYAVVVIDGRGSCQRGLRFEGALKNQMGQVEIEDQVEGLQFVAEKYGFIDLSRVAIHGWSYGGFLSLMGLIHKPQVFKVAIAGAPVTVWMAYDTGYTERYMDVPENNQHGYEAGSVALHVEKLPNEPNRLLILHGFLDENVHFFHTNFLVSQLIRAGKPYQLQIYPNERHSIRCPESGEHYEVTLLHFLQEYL
Chain of CMY-2 (Q48434 21-381, species assumed): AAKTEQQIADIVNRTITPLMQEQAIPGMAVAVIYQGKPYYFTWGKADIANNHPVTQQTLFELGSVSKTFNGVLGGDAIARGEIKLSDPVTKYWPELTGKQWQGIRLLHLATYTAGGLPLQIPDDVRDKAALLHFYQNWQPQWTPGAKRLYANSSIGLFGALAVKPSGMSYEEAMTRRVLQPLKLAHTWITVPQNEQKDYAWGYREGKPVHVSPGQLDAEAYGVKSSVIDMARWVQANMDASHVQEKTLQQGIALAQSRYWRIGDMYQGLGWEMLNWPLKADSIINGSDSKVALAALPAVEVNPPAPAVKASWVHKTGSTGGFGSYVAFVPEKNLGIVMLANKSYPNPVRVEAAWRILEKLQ
Chain of P99 (P05364 21-381): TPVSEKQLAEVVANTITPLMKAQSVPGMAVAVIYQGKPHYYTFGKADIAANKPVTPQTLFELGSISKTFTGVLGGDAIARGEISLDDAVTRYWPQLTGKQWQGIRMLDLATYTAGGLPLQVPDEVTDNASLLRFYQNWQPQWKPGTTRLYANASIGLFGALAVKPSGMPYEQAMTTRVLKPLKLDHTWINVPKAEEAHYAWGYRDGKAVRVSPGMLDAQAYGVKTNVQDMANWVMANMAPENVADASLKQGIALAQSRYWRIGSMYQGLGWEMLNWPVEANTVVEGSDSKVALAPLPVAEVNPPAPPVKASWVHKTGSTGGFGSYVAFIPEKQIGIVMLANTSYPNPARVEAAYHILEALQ
Chain of OXA-48 (Q6XEC0 23-265 limits assumed): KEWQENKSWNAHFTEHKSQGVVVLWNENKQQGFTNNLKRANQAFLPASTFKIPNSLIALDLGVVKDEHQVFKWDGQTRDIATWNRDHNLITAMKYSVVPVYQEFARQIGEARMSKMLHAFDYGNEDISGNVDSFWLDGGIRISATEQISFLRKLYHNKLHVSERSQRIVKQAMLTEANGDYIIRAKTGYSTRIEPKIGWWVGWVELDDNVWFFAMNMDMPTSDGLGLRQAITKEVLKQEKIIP
T1 sequence (Q6V1X1 whole entry): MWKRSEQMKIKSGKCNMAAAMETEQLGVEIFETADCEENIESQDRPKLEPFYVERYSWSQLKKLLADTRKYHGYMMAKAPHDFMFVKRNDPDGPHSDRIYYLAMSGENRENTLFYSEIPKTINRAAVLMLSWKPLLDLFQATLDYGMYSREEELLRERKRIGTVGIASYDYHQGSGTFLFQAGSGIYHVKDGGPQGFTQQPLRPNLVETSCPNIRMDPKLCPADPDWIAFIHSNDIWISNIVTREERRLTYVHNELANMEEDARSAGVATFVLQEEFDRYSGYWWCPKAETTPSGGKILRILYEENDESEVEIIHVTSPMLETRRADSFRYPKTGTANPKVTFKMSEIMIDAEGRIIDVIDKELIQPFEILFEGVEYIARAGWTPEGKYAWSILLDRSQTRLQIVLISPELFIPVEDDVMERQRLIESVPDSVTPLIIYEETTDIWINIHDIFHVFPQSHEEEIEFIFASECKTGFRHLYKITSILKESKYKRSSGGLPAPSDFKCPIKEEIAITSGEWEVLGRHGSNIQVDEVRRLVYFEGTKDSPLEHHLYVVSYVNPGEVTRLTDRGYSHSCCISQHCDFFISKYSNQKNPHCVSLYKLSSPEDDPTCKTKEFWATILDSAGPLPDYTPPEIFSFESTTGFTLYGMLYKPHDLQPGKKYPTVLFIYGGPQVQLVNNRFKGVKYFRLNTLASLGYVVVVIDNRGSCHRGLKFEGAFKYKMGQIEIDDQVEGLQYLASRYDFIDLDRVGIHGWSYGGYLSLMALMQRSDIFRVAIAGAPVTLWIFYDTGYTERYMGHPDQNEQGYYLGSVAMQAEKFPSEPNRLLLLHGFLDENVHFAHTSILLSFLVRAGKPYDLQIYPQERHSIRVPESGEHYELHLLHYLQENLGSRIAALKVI
Chain of CTX-M-14 (Q9L5C7 entry or part of it): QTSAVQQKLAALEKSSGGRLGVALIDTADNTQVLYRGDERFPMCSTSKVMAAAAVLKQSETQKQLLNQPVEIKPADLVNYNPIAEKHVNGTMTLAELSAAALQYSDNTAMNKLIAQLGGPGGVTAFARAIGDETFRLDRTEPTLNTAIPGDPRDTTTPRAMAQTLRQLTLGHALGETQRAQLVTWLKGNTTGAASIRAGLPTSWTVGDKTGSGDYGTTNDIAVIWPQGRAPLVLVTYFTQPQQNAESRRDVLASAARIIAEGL

Structure (SMILES): NC(=O)C(=O)N[C@H]1Cc2cccc(C(=O)O)c2OB1O [Compound 17, (R)-3-(2-amino-2-oxoacetamido)-2-hydroxy-3,4-dihydro-2H-benzo[e][1,2]oxaborinine-8-carboxylic acid]
- Ki (CTX-M-14): 0.001 to 0.01 µM
- AZT MPC4 CTX-M-15 KP1009 (KP1009 (CTX-M-15) [1]): Y (key: X = MIC of less than 1 μg/mL; Y = MIC of 1 μg/mL to 10 μg/mL; Z = MIC of greater than 10 μg/mL)
- TIG MPC4 SHV-5 ec308 (ec308 (SHV-5) [2]): Y (Y = MIC of 1 μg/mL to 10 μg/mL)
- AZT MPC4 SHV-5 ec308 (ec308 (SHV-5) [3]): X (X = MIC of less than 1 μg/mL)
- Ki (P99): 0.001 to 0.01 µM
- TIG MPC4 TEM-10 ec302 (ec302 (TEM-10) [4]): X (key: X = MIC of less than 1 μg/mL; Y = MIC of 1 μg/mL to 10 μg/mL; Z = MIC of greater than 10 μg/mL)
- AZT MPC4 K-2 KP1004 (KP1004 (K-2)): Y (Y = MIC of 1 μg/mL to 10 μg/mL)
- Ki (OXA-48): 0.001 to 0.01 µM
- TIG MPC4 CTX-M-15 KP1009 (KP1009 (CTX-M-15) [5]): Y (Y = MIC of 1 μg/mL to 10 μg/mL)
- AZT MPC4 ECL1002 (ECL1002): Y (Y = MIC of 1 μg/mL to 10 μg/mL)
- AZT MPC4 TEM-10 ec302 (ec302 (TEM-10) [6]): X (key: X = MIC of less than 1 μg/mL; Y = MIC of 1 μg/mL to 10 μg/mL; Z = MIC of greater than 10 μg/mL)
- AZT MPC4 CMY-6 EC1010 (EC1010 (CMY-6) [7]): Y (key: X = MIC of less than 1 μg/mL; Y = MIC of 1 μg/mL to 10 μg/mL; Z = MIC of greater than 10 μg/mL)
- AZT MPC4 CTX-M-14 KP1005 (KP1005 (CTX-M-14)): Y (key: X = MIC of less than 1 μg/mL; Y = MIC of 1 μg/mL to 10 μg/mL; Z = MIC of greater than 10 μg/mL)
- Ki (CMY-2): 0.001 to 0.01 µM
- TIG MPC4 CMY-6 EC1010 (EC1010 (CMY-6) [8]): X (key: X = MIC of less than 1 μg/mL; Y = MIC of 1 μg/mL to 10 μg/mL; Z = MIC of greater than 10 μg/mL)
- PAM1154/KPC-2 Biapenem MPC64 (PAM1154/KPC-2): X (key: X = Less than 10; Y = 10 to 40; Z Greater than 40)
- PAM1032/KPC-2 Biapenem MPC64 (PAM1032/KPC-2): Z (Z Greater than 40)
- Ki (SHV-12): 0.001 to 0.01 µM

Structure (SMILES): CC(=O)N[C@@H](CC(C)C)C(=O)N[C@@H](CC(C)C)C(=O)N[C@H](C=O)CCCNC(=N)N [Leupeptin, leupeptin, reference compound]
- IC50 [9]: 15 to 500 µM
- IC50 (Neutrophil elastase): 15 to 500 µM
- IC50 [10]: 15 to 500 µM
- IC50 (Urokinase): 22 µM
- IC50 (Plasmin): 5 µM
- IC50 (Thrombin): 15 µM
- IC50 (HtrA2): > 500 µM
- IC50 (CathepsinA): 15 to 500 µM
- IC50 (Elastase): > 200 µM
- IC50 (Chymotrypsin): > 200 µM
- IC50 (Trypsin): < 0.27 µM
- IC50 [11]: 15 to 500 µM
- IC50 (Chymase): > 200 µM
